# Experiments:
# Bcr/Abl fusion protein [1] = target: Bcr/Abl fusion protein (Homo sapiens, UniProt P00519, T315I); assay: Inhibition of Bcr-Abl T315I mutant (unknown origin) incubated for 1 hr in presence of ATP by ADP-Glo kinase assay; format: protein assay
# K562 = assay: Antiproliferative activity against human K562 cells assessed as inhibition of cell growth incubated for 48 hrs by MTT assay; format: functional, cell-based; conditions: K562, 48 h
# K562/Adr [2] = assay: Antiproliferative activity against human Adriamycin-resistant K562/Adr cells assessed as inhibition of cell growth at 30 uM incubated for 48 hrs by MTT assay; format: functional
# Bcr/Abl fusion protein [3] = target: Bcr/Abl fusion protein (Homo sapiens, UniProt P00519); assay: Inhibition of wild type Bcr-Abl (unknown origin) incubated for 1 hr in presence of ATP by ADP-Glo kinase assay; format: protein assay
# BaF3 = assay: Antiproliferative activity against mouse BaF3 cells expressing Bcr-Abl T315I mutant assessed as inhibition of cell growth at 30 uM incubated for 72 hrs by CellTiter-Glo luminescent assay; format: functional
# K562/Adr [4] = assay: Antiproliferative activity against human Adriamycin-resistant K562/Adr cells assessed as inhibition of cell growth incubated for 48 hrs by MTT assay; format: functional, cell-based
SMILES,IC50 (Bcr/Abl fusion protein [1]) [nM],IC50 (K562) [nM],inhibition at 30 µM (K562/Adr [2]) [%],IC50 (Bcr/Abl fusion protein [3]) [nM],inhibition at 30 µM (BaF3) [%],IC50 (K562/Adr [4]) [nM]
O=C(Nc1nc2ccc(-c3cn([C@@H]4CN[C@H](C(=O)Nc5ccc(F)c(F)c5)C4)nn3)nc2s1)C1CC1,1340,40700,29.5,30.1,,
CC(C)(C)OC(=O)N1C[C@@H](n2cc(-c3ccc4c(N)n[nH]c4c3)nn2)C[C@H]1C(=O)Nc1ccc(Cl)c(C(F)(F)F)c1,150,10500,37.1,21.9,53.8,
O=C(Nc1nc2ccc(-c3cn([C@@H]4CN[C@H](C(=O)Nc5ccc(Cl)c(C(F)(F)F)c5)C4)nn3)nc2s1)C1CC1,110,16200,10.4,24.6,78.8,
O=C(NC1CC1)c1cncc(-c2cn([C@@H]3CN[C@H](C(=O)Nc4ccc(Cl)c(C(F)(F)F)c4)C3)nn2)c1,31.5,820,,1.94,24.6,175000
CC(C)(C)OC(=O)N1C[C@@H](n2cc(-c3ccc4nc(N)sc4n3)nn2)C[C@H]1C(=O)Nc1ccc(Cl)cc1Cl,410,8940,28.3,14.7,86.7,
CC(C)(C)OC(=O)N1C[C@@H](n2cc(-c3ccc4nc(N)sc4n3)nn2)C[C@H]1C(=O)Nc1ccc(F)c(F)c1,487,26400,,17.4,16.8,63800
O=C(Nc1nc2ccc(-c3cn([C@@H]4CN[C@H](C(=O)Nc5ccc(Br)cc5)C4)nn3)nc2s1)C1CC1,33.3,8160,,10.4,66.5,48200
CC(=O)Nc1nc2ccc(-c3cn([C@@H]4CN[C@H](C(=O)Nc5ccc(F)c(F)c5)C4)nn3)nc2s1,1890,63000,38.4,202,,
CC(C)(C)OC(=O)N1C[C@@H](n2cc(-c3ccc4nc(N)sc4n3)nn2)C[C@H]1C(=O)Nc1ccc(Br)cc1,25.2,29200,31.7,6.88,,
CC(C)(C)OC(=O)N1C[C@@H](n2cc(-c3ccc(N)nc3)nn2)C[C@H]1C(=O)Nc1ccc(Cl)c(C(F)(F)F)c1,125,4710,48.6,0.94,66.7,
O=C(Nc1n[nH]c2cc(-c3cn([C@@H]4CN[C@H](C(=O)Nc5ccc(Br)cc5)C4)nn3)ccc12)C1CC1,144,8080,39.6,5.53,20,
Nc1nc2ccc(-c3cn([C@@H]4CN[C@H](C(=O)Nc5ccc(Br)cc5)C4)nn3)nc2s1,178,24400,35.9,27.1,27.5,
CC(=O)Nc1nc2ccc(-c3cn([C@@H]4CN[C@H](C(=O)Nc5ccc(Br)cc5)C4)nn3)nc2s1,169,5020,32,6.99,40,
CC(=O)Nc1nc2ccc(-c3cn([C@@H]4CN[C@H](C(=O)Nc5ccc(Cl)cc5Cl)C4)nn3)nc2s1,388,9670,36.1,4.8,39.5,
O=C(Nc1n[nH]c2cc(-c3cn([C@@H]4CN[C@H](C(=O)Nc5ccc(Cl)cc5Cl)C4)nn3)ccc12)C1CC1,200,5340,43.3,0.83,27.6,
CC(C)(C)OC(=O)N1C[C@@H](n2cc(-c3ccc4c(N)n[nH]c4c3)nn2)C[C@H]1C(=O)Nc1ccc(Br)cc1,237,3710,23,50,20.1,

SMILES,IC50 (Bcr/Abl fusion protein [1]) [nM],IC50 (K562) [nM],inhibition at 30 µM (K562/Adr [2]) [%],IC50 (Bcr/Abl fusion protein [3]) [nM],inhibition at 30 µM (BaF3) [%],IC50 (K562/Adr [4]) [nM]
CC(=O)Nc1nc2ccc(-c3cn([C@@H]4CN[C@H](C(=O)Nc5ccc(Cl)c(C(F)(F)F)c5)C4)nn3)nc2s1,59.6,10000,,23.5,44.8,
CC(=O)Nc1ccc(-c2cn([C@@H]3CN[C@H](C(=O)Nc4ccc(Cl)c(C(F)(F)F)c4)C3)nn2)cn1,127,8980,33.6,3.45,26.5,
CN(C)CCNC(=O)c1cncc(-c2cn([C@@H]3CN[C@H](C(=O)Nc4ccc(Cl)c(C(F)(F)F)c4)C3)nn2)c1,349,21000,14.5,29.2,21.8,
CC(C)(C)C(=O)Nc1ccc(-c2cn([C@@H]3CN[C@H](C(=O)Nc4ccc(Cl)c(C(F)(F)F)c4)C3)nn2)cn1,3440,43800,19.1,41.5,,
CC(C)(C)OC(=O)N1C[C@@H](n2cc(-c3ccc4c(N)n[nH]c4c3)nn2)C[C@H]1C(=O)Nc1ccc(Cl)cc1Cl,1880,12200,25.6,60.6,28.7,
Nc1n[nH]c2cc(-c3cn([C@@H]4CN[C@H](C(=O)Nc5ccc(Cl)c(C(F)(F)F)c5)C4)nn3)ccc12,137,8320,48.2,15,31.2,
Nc1n[nH]c2cc(-c3cn([C@@H]4CN[C@H](C(=O)Nc5ccc(Br)cc5)C4)nn3)ccc12,310,10300,26.8,43.6,,
Nc1nc2ccc(-c3cn([C@@H]4CN[C@H](C(=O)Nc5ccc(F)c(F)c5)C4)nn3)nc2s1,1590,33200,27.4,128,,
Nc1n[nH]c2cc(-c3cn([C@@H]4CN[C@H](C(=O)Nc5ccc(Cl)cc5Cl)C4)nn3)ccc12,3670,28400,29.4,8.6,19.3,
CC(=O)Nc1n[nH]c2cc(-c3cn([C@@H]4CN[C@H](C(=O)Nc5ccc(Cl)c(C(F)(F)F)c5)C4)nn3)ccc12,121,15500,23.4,28.2,21.8,
Nc1nc2ccc(-c3cn([C@@H]4CN[C@H](C(=O)Nc5ccc(Cl)cc5Cl)C4)nn3)nc2s1,118,24500,42.2,9.45,19.5,
CC(C)(C)OC(=O)N1C[C@@H](n2cc(-c3ccc4nc(N)sc4n3)nn2)C[C@H]1C(=O)Nc1ccc(Cl)c(C(F)(F)F)c1,667,10800,27.4,10.6,52.3,
CCN(CC)C(=O)c1cncc(-c2cn([C@@H]3CN[C@H](C(=O)Nc4ccc(Cl)c(C(F)(F)F)c4)C3)nn2)c1,261,27600,32.4,14.5,,
Nc1nc2ccc(-c3cn([C@@H]4CN[C@H](C(=O)Nc5ccc(Cl)c(C(F)(F)F)c5)C4)nn3)nc2s1,24.7,26200,,15.6,,187000
O=C(Nc1ccc(Cl)c(C(F)(F)F)c1)[C@@H]1C[C@H](n2cc(-c3cncc(C(=O)N4CCOCC4)c3)nn2)CN1,801,28800,25.6,60.1,,
O=C(Nc1ccc(-c2cn([C@@H]3CN[C@H](C(=O)Nc4ccc(Cl)c(C(F)(F)F)c4)C3)nn2)cn1)C1CC1,338,8770,44.3,0.65,36.4,
